According to patent US9254291B2, “Modulators of ATP-binding cassette transporters” (VERTEX PHARMACEUTICALS INCORPORATED, priority 2011, dated 2016):

Biological target: T1, ΔF508-CFTR (Homo sapiens, UniProt P13569, DEL508-508)
T1 construct: expressed in transfected cells
Assay: Membrane potential optical assay for ΔF508-CFTR correction properties of compounds
Assay type: cell-based
Settings: ΔF508-CFTR in NIH3T3 mouse fibroblasts; test behind Table 2 not named
Text: Assays for Detecting and Measuring ΔF508-CFTR Correction Properties of Compounds
Membrane potential optical methods for assaying ΔF508-CFTR modulation properties of compounds.
The assay utilizes fluorescent voltage sensing dyes to measure changes in membrane potential using a fluorescent plate reader (e.g., FLIPR III, Molecular Devices, Inc.) as a readout for increase in functional ΔF508-CFTR in NIH 3T3 cells. The driving force for the response is the creation of a chloride ion gradient in conjunction with channel activation by a single liquid addition step after the cells have previously been treated with compounds and subsequently loaded with a voltage sensing dye.
Identification of Correction Compounds
To identify small molecules that correct the trafficking defect associated with ΔF508-CFTR; a single-addition HTS assay format was developed. […] Cells are then ready for compound exposure after adhering to the bottom of the assay plates.
The cells were incubated in serum-free medium for 16-24 hrs in tissue culture incubator at 37° C., 5% CO2, 90% humidity in the presence or absence (negative control) of test compound. […] The addition of Cl^−-free medium promoted Cl^− efflux in response to ΔF508-CFTR activation and the resulting membrane depolarization was optically monitored using voltage sensor dyes. […]

T1 sequence (P13569 with tags, fused parts or gaps DEL508-508): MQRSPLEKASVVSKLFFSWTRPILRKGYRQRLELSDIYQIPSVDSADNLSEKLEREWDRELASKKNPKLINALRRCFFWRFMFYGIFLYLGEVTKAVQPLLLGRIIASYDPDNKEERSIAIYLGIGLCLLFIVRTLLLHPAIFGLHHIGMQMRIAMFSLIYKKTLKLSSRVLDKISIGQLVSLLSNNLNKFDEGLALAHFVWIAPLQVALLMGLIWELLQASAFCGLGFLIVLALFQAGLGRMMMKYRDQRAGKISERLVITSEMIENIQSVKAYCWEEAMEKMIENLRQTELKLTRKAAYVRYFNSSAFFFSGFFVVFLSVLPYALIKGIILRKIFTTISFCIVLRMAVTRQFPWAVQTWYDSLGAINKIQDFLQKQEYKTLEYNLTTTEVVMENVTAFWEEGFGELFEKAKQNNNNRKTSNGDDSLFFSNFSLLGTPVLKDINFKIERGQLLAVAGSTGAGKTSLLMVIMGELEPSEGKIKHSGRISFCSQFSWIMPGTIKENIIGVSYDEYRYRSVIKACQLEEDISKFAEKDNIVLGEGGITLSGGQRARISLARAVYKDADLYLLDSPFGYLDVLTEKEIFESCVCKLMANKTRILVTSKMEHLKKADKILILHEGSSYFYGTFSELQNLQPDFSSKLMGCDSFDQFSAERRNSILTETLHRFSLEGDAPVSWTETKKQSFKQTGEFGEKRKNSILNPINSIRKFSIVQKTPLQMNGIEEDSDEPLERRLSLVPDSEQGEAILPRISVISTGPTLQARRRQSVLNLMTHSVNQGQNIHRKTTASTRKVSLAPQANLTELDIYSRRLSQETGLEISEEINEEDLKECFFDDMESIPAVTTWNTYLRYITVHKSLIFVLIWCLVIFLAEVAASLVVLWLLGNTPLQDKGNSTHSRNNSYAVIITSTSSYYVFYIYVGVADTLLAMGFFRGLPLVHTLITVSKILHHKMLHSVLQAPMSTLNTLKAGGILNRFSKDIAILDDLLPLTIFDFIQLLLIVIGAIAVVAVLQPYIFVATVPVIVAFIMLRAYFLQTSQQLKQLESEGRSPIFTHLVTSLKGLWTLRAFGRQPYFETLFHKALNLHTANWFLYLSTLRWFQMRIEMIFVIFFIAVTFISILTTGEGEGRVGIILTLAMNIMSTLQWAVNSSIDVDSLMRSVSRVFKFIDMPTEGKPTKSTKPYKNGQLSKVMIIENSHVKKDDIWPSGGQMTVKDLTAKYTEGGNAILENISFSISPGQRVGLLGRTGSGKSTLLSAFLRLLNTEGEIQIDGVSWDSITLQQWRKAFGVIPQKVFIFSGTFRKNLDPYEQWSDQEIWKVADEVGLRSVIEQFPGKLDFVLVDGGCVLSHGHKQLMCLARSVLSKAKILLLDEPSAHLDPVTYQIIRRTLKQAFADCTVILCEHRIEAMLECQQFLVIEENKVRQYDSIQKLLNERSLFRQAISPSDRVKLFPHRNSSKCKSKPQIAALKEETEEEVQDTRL

SMILES: CC1(C)c2cc3cc(NC(=O)C4(c5ccc6c(c5)OC(F)(F)O6)CC4)c(F)cc3n2C[C@H](CO)OC1O (stereo partly drawn) [1-(2,2-difluorobenzo[d][1,3]dioxol-5-yl)-N-((4R)-8-fluoro-2-hydroxy-4-(hydroxymethyl)-1,1-dimethyl-1,2,4,5-tetrahydro-[1,4]oxazepino[4,5-a]indol-9-yl)cyclopropanecarboxamide]
- EC50: < 2000 nM
